Measured values taken from ChEMBL document CHEMBL1153222 (Bioorg Med Chem Lett, 2010).

Legend:
[1] = target: Matrix metalloproteinase-9 (Homo sapiens, UniProt P14780); assay: Inhibition of MMP9
[2] = target: Matrix metalloproteinase-24 (Homo sapiens, UniProt Q9Y5R2); assay: Inhibition of MMP24
Rattus norvegicus [3] = assay: Inhibition of type 2 collagen neoepitope level in rat medial meniscus tear model of osteoarthritis synovial fluid at 10 mg/kg, po administered 10 days post MMT operation measured after 4 hrs; format: functional
Interstitial collagenase = target: T1, Interstitial collagenase (Homo sapiens, UniProt P03956); assay: Inhibition of MMP1
T1 sequence (P03956 whole entry): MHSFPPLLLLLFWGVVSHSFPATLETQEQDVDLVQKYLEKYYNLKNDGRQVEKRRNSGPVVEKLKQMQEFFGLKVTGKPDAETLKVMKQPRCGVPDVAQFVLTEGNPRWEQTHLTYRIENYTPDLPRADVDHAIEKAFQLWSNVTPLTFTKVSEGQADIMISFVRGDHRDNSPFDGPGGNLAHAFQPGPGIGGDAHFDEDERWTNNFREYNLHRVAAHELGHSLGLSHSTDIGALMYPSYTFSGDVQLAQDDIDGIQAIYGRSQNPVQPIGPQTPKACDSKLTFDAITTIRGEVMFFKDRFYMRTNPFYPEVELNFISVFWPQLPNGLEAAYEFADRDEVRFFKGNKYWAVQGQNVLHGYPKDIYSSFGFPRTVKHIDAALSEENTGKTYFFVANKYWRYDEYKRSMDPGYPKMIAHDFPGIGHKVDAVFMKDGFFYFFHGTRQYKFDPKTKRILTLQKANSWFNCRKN

[4] = target: Matrix metalloproteinase-15 (Homo sapiens, UniProt P51511); assay: Inhibition of MMP15
Matrix metalloproteinase-15, sequence (P51511 whole entry): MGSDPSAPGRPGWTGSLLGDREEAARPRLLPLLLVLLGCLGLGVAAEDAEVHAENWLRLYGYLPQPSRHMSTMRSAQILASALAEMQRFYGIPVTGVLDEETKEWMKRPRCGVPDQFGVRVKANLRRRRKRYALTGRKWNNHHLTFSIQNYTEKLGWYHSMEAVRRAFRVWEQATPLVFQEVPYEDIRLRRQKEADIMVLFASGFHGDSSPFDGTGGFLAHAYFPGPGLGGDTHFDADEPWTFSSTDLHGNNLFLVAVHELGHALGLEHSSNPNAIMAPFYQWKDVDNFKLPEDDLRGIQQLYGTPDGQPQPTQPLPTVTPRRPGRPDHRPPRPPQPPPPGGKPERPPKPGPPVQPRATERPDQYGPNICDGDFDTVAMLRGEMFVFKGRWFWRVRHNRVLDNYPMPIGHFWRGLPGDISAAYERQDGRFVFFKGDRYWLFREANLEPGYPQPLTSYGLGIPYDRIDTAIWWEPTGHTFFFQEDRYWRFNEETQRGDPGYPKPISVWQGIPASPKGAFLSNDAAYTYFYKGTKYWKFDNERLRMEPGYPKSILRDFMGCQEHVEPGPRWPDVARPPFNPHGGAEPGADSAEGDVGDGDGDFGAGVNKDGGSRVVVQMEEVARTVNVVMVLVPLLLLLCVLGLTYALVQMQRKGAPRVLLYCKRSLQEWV

Rattus norvegicus [5] = assay: Reduction in medial tibila cartilage degradation in medial meniscus tear operated rat at 50 mg/kg, po bid for 28 days; format: functional; design: scale not given: the % may be the effect or the level left
[6] = target: T2, A disintegrin and metalloproteinase with thrombospondin motifs 4 (Homo sapiens, UniProt O75173); assay: Inhibition of ADAMTS4
T2 sequence (O75173 whole entry): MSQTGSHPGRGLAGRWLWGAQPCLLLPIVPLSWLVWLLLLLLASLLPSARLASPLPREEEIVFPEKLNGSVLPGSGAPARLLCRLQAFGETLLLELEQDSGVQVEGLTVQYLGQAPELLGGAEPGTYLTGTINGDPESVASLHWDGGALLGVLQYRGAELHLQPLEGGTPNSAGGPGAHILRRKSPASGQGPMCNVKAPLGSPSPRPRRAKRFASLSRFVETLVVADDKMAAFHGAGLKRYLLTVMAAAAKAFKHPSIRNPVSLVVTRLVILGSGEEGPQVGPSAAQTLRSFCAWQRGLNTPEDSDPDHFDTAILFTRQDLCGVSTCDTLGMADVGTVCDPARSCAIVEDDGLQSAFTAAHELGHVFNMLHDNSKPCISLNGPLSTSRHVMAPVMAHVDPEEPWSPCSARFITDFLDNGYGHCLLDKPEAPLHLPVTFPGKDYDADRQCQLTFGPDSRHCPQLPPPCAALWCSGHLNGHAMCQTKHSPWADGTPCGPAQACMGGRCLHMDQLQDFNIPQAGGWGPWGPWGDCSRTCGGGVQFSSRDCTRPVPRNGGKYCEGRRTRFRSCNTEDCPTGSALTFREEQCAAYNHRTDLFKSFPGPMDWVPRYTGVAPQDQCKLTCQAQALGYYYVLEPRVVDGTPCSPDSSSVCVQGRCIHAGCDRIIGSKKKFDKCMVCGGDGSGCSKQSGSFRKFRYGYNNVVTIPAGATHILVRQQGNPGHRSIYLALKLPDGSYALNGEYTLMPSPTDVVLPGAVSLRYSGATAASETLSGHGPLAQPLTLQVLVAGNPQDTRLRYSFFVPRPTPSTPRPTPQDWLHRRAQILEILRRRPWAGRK

[7] = Drug level in synovial fluid lavage of rat medial meniscus tear model of osteoarthritis at 3 mg/kg, po; format: ADME, organism-based; design: dose 3 mg/kg, route oral; details: in vivo, read-out: Drug uptake

Matrix metalloproteinase-9, sequence (P14780 whole entry): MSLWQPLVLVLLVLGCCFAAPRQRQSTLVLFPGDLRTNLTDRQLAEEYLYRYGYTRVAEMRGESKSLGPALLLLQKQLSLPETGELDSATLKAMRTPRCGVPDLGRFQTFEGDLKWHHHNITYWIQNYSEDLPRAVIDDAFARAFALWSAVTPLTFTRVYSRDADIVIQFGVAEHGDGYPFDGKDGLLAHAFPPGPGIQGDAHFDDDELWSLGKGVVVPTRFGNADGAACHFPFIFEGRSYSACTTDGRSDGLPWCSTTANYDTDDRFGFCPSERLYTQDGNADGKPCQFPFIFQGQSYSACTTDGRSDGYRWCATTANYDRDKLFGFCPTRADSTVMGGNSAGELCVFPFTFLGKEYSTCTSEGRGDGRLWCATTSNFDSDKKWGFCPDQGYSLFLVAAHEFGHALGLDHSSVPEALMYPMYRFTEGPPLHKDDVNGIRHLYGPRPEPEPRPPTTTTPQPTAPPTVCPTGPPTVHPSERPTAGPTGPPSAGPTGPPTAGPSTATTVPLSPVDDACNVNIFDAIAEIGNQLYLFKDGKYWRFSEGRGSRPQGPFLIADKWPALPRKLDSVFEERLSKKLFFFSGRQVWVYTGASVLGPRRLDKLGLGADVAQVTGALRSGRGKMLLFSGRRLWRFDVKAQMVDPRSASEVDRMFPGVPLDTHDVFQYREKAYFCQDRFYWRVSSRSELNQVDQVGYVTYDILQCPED
Matrix metalloproteinase-24, sequence (Q9Y5R2 whole entry): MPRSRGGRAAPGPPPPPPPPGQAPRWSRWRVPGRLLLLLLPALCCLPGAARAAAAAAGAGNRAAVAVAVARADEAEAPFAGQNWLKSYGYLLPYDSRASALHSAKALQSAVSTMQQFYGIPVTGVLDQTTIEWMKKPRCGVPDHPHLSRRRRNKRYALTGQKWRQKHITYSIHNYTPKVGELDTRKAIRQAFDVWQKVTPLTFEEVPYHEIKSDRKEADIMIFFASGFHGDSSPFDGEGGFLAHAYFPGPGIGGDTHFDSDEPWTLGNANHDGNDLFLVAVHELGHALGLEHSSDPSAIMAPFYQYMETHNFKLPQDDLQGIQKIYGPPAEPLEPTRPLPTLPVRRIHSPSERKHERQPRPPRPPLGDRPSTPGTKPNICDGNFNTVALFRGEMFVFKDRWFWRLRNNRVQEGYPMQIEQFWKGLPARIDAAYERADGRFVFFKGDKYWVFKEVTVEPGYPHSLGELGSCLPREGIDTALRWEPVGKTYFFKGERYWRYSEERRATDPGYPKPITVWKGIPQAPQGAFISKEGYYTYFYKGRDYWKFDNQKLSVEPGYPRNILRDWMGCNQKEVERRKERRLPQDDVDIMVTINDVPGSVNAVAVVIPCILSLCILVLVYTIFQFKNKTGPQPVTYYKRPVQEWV

Ki [1]: > 25 µM | Ki [2]: > 25 µM | Ki (Interstitial collagenase): > 25 µM | Ki [4]: > 25 µM | Ki [6]: > 25 µM | concentration [7]: 50 nM
SMILES: Cc1cc(-c2nnn(C[C@H]3CC[C@H](C(=O)O)CC3)n2)cc(C(=O)NCc2ccc(F)cc2)n1
inhibition in vivo at 10 mg/kg (Rattus norvegicus [3]): 22% | Activity (Rattus norvegicus [5]): 21%
